What was measured:
[1] = test system: Cyp7a1; assay: Acute mouse in vivo assay, Cyp7a1 gene expression in liver; details: @ 6 h
Method: (§1) Acute Mouse In Vivo Assay:
(§2) Male, C57BL6/NTac mice, weighing 25-28 g, are purchased from Taconic Labs (Hudson, N.Y.) and maintained on Teklad Global 18% Protein Rodent Diet (Harlan Laboratories). After 1 week acclimation, mice are sorted into groups based upon body weight. Mice are administered a single oral dose of vehicle or experimental compound. Systemic compound exposure is evaluated in plasma derived from blood collected via the submandibular vein at 1 hour post-dose, and at study termination (6 h). At study termination, the animals are euthanized and rapidly dissected. The medial lobe of the liver is divided, with one half being homogenized and analyzed for compound exposure, and the other half saved in RNAlater (Thermo-Fisher Scientific). The ileum is also dissected and preserved in RNAlater. Tissue samples in RNAlater are homogenized with MP Biomedicals' beads. RNA is extracted using the MagMax-96 Total RNA Isolation kit (Thermo-Fisher Scientific) according to the manufacturer's protocol. RNA Concentration is determined with the Nano-Drop 8000 Spectrophotometer (Thermo Fisher). Reverse transcription is done with Invitrogen's SuperScript® VILO cDNA Synthesis Kit according to the manufacturer's protocol. Real time PCR is done with Applied Biosystems' Taqman PCR master mixture according to the manufacturer's protocol. All primers are purchased from Thermo-Fisher Scientific. Mouse genes analyzed include Nr0b2 (which encodes the small heterodimer partner, SHP), Abcb11 (which encodes the bile salt excretion pump, BSEP), Cyp7a1, & Cyp8b1 in liver, and Fgf15, Fabp6 (which encodes ileal bile acid binding protein, I-BABP), Slc51a (which encodes organic solute transporter alpha subunit, OSTA), and Slc51b (which encodes organic solute transporter beta subunit, OSTB) in the ileum. The statistical significant changes in FGF15 gene expression are expressed as fold increase and CYP7A1 expression as a percent reduction relative to vehicle control.

[2] = test system: Fgf15; assay: Acute mouse in vivo assay, Fgf15 gene expression in ileum; details: @ 6 h
Method: as §1, §2

[3] = biological target: T1, human FXR (Homo sapiens, UniProt Q96RI1); assay: transient human FXR/Gal4-luciferase reporter assay; assay type: cell-based; details: Gal4-hFXR transfected HEK293 reporter cells; relative to 8 μM GW-4064
T1 construct: expressed in transfected cells; host or cells: HEK293 cells stably carrying a 5xGal4-response-element firefly luciferase reporter, transiently transfected with pcDNA3.1-Gal4-FXR
T1 sequence (Q96RI1 262-486 limits assumed): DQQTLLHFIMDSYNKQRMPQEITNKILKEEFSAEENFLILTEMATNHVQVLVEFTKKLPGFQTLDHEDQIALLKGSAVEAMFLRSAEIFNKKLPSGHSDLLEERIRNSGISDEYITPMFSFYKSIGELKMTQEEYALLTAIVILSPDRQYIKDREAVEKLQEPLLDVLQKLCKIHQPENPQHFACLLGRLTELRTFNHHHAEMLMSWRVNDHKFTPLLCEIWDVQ
Outline: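 HEK293 cells stably carrying a 5×Gal4-response-element firefly luciferase reporter, transiently transfected overnight with a CMV-driven Gal4 DNA-binding domain/human FXR ligand-binding domain fusion.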

In the case of `O=C(O)c1cc(F)c2nc(N3CCC4(C=C(c5c(-c6c(Cl)cccc6Cl)noc5C5CC5)C4)CC3)sc2c1` [Example 1, 2-(2-(5-Cyclopropyl-3-(2,6-dichlorophenyl)isoxazol-4-yl)-7-azaspiro[3.5]non-1-en-7-yl)-4-fluorobenzo[d]thiazole-6-carboxylic acid], the “Cyp7a1 expression, percent reduction relative to vehicle control” value ([1]; single oral dose 3 mg/kg) is reported as −99%, the “Cyp7a1 expression, percent reduction relative to vehicle control” value ([1]; single oral dose 30 mg/kg) is reported as −99% and the “Fgf15 expression, fold increase relative to vehicle control” value ([2]; single oral dose 3 mg/kg) is reported as “+18 ×”. The “Fgf15 expression, fold increase relative to vehicle control” value ([2]; single oral dose 30 mg/kg) was “+31 ×”.

`O=C(O)c1ccc2cc(N3CCC4(C=C(c5c(-c6c(Cl)cccc6Cl)noc5C5CC5)C4)CC3)ccc2n1` [Example 20, 6-(2-(5-Cyclopropyl-3-(2,6-dichlorophenyl)isoxazol-4-yl)-7-azaspiro[3.5]non-1-en-7-yl) quinoline-2-carboxylic acid] was tested, and the “Cyp7a1 expression, percent reduction relative to vehicle control” value ([1]; single oral dose 3 mg/kg) was −98%.

With `O=C(O)c1cc(C(F)(F)F)c2cc(N3CCC4(C=C(c5c(-c6c(Cl)cncc6Cl)noc5C5CC5)C4)CC3)ccc2n1` [Example 85, 6-(2-(5-cyclopropyl-3-(3,5-dichloropyridin-4-yl)isoxazol-4-yl)-7-azaspiro[3.5]non-1-en-7-yl)-4-(trifluoromethyl)quinoline-2-carboxylic acid] the “Cyp7a1 expression, percent reduction relative to vehicle control” value ([1]; single oral dose 3 mg/kg) was −94%.

`COc1cc(C(=O)O)nc2ccc(N3CCC4(C=C(c5c(-c6c(Cl)cncc6Cl)noc5C5CC5)C4)CC3)cc12` [Example 108, 6-(2-(5-Cyclopropyl-3-(3,5-dichloropyridin-4-yl)isoxazol-4-yl)-7-azaspiro[3.5]non-1-en-7-yl)-4-methoxyquinoline-2-carboxylic acid] was tested, and the EC50 [3] was 32 nM, the “Cyp7a1 expression, percent reduction relative to vehicle control” value ([1]; single oral dose 3 mg/kg) was −97% and the “Fgf15 expression, fold increase relative to vehicle control” value ([2]; single oral dose 3 mg/kg) was “+14 ×”.

With `CS(=O)(=O)NC(=O)c1cc(C(F)(F)F)c2cc(N3CCC4(C=C(c5c(-c6c(Cl)cncc6Cl)noc5C5CC5)C4)CC3)ccc2n1` [Example 184, 6-(2-(5-Cyclopropyl-3-(3,5-dichloropyridin-4-yl)isoxazol-4-yl)-7-azaspiro[3.5]non-1-en-7-yl)-N-(methylsulfonyl)-4-(trifluoromethyl)quinoline-2-carboxamide] the EC50 [3] was 73 nM, the “Cyp7a1 expression, percent reduction relative to vehicle control” value ([1]; single oral dose 3 mg/kg) was −99% and the “Fgf15 expression, fold increase relative to vehicle control” value ([2]; single oral dose 3 mg/kg) was “+28 ×”.

From patent US11078198B2 (BRISTOL-MYERS SQUIBB COMPANY, priority 2017, dated 2021)
